The results in this text go back to US7652153B2, “Caspase inhibitors and uses thereof” (Vertex Pharmaceuticals Incorporated, priority 2004, dated 2010).

SMILES strings stand for the structures. Where only a bound is given, the exact number is not on record here.

Assay [1] deals with T1, caspase-1 (Homo sapiens, UniProt P29466).
T1 sequence (P29466 120-297 limits assumed): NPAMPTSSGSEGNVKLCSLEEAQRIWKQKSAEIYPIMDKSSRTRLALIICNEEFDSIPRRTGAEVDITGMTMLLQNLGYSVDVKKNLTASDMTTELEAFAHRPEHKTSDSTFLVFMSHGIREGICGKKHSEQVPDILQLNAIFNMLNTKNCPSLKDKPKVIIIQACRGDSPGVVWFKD
T1 sequence (P29466 317-404 limits assumed): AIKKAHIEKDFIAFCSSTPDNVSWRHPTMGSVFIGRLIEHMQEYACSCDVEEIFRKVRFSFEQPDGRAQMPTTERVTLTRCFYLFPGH
Description: Caspase-1 enzyme inhibition (Ki, method of Margolin et al.). The assay is classed as biochemical. Conditions: Suc-YVAD-pNA substrate 80 μM, 37° C., pH 7.5; read-out: Ki C1. As to the method: (§1) Compounds of this invention may be tested using the methods described below.
(§2) In Vitro Assays Enzyme Inhibition
(§3) Ki values for test compounds with caspase-1 and caspase-8 were obtained by the method of Margolin et al. (J. Biol. Chem., 272 pp. 7223-7228 (1997)). Other caspases may be assayed similarly (see, e.g., WO 99/47545). Assays were performed in 10 mM Tris (Sigma Corp, St Louis Mo.) pH 7.5, 1 mM Dithiothreitol (DTT, Research Organic INC, Cleveland, Ohio) and 0.1% CHAPS (Pierce, Rockford Ill.) at 37° C. For caspase-3, a solution of 8% glycerol was added to the assay buffer to improve enzyme stability. A 65 μL aliquot of the assay buffer and 5 μL aliquot of the appropriate dilutions of inhibitor in DMSO where pipetted into a 96 well plate, treated with 10 μL of caspase, then diluted in assay buffer (0.5-40 nM active protein by active site titration). A control containing DMSO but no compound was included for each determination. The plates were then incubated for 15 minutes at 37° C., before addition of the appropriate substrate (20 μL, final concentration 1-4×KM, final assay volume 100 μL) to initiate the reaction. Reaction rates were measured at 37° C. either by following the time dependant increase in absorbance at 405 nm (for the pNA substrates) or in fluorescence (Ex 390, Em 460) (for the AMC substrates). The rates obtained were plotted against inhibitor concentration and the data fit to the Morrison tight-binding equation for competitive inhibitors (Morrison, J. F., Biochem. Biophys. Acta, 185 pp. 269-286 (1969)). The substrates used for the individual assays were as follows:
Caspase-1 Suc-YVAD-pNA (Bachem, King of Prussia, Pa.) (final concentration in the assay 80 μM);

The target in assay [2] is caspase-8 (Homo sapiens, UniProt Q14790). Description: Caspase-8 enzyme inhibition (Ki, method of Margolin et al.). The assay is classed as biochemical. The conditions noted are these: Ac-DEVD-pNA substrate 80 μM, 37° C., pH 7.5; read-out: Ki C8. As to the method:
as §1, §2, §3
Caspase-8 Ac-DEVD-pNA (Bachem, King of Prussia, Pa.) (final concentration in assay 80 μM).

caspase-8, sequence (Q14790 217-374 limits assumed, species assumed): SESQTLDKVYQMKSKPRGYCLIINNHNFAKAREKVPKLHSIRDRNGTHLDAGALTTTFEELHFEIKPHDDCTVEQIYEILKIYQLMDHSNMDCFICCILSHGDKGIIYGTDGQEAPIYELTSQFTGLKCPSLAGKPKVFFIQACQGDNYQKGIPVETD
caspase-8, sequence (Q14790 385-479 limits assumed, species assumed): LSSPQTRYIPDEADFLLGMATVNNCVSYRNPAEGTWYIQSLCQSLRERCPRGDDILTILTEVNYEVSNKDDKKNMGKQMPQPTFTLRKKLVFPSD

For `CC(C)[C@H](NC(=O)c1cccc(Cl)c1Cl)C(=O)N1CCC[C@H]1C(=O)N[C@H](C=O)CC(=O)O` [II-8, (S,S,S)-(3S)-({1-[(2S)-(2,3-Dichloro-benzoylamino)-3-methyl-butyryl]-pyrrolidine-(2S)-carbonyl}-amino)-4-oxo-butyric acid], the Ki was < 10 nM in assay [1] and 10 to 20 nM in assay [2].

Turning to `CC(C)[C@H](NC(=O)c1cc(Cl)ccc1Cl)C(=O)N1CCC[C@H]1C(=O)N[C@H](C=O)CC(=O)O` [II-12, (S,S,S)-(3S)-({1-[(2S)-(2,5-Dichloro-benzoylamino)-3-methyl-butyryl]-pyrrolidine-(2S)-carbonyl}-amino)-4-oxo-butyric acid], the Ki in assay [1] was < 10 nM; in assay [2] it was 10 to 20 nM.

As to `CC(C)(C)[C@H](NC(=O)c1cccc(Oc2ccccc2)c1Cl)C(=O)N1CCC[C@H]1C(=O)N[C@H](C=O)CC(=O)O` [II-52, (S,S,S)-(3S)-({1-[(2S)-(2-chloro-3-phenoxy-benzoylamino)-3,3-dimethyl-butyryl]-pyrrolidine-(2S)-carbonyl}-amino)-4-oxo-butyric acid], the Ki in assay [1] and in assay [2] was < 10 nM each time.

For the compound `CC(=O)Nc1ccc(C(=O)N[C@H](C(=O)N2CCC[C@H]2C(=O)N[C@H](C=O)CC(=O)O)C(C)(C)C)c(F)c1` [II-44, (S,S,S)-(3S)-({1-[(2S)-(2-fluoro-4-acetamido-benzoylamino)-3,3-dimethyl-butyryl]-pyrrolidine-(2S)-carbonyl}-amino)-4-oxo-butyric acid], the inhibitory constant (Ki) in assay [1] and in assay [2] was < 10 nM throughout.

For `COC(=O)Nc1ccc(C(=O)N[C@H](C(=O)N2CCC[C@H]2C(=O)N[C@H](C=O)CC(=O)O)C(C)(C)C)c(Cl)c1` [II-51, (S,S,S)-(3S)-({1-[(2S)-(2-chloro-4-methoxycarbonylamino-benzoylamino)-3,3-dimethyl-butyryl]-pyrrolidine-(2S)-carbonyl}-amino)-4-oxo-butyric acid], the Ki in assay [1] and in assay [2] was < 10 nM each time.

For `Cc1ncccc1C(=O)N[C@H](C(=O)N1CCC[C@H]1C(=O)N[C@H](C=O)CC(=O)O)C(C)C` [II-15, (S,S,S)-(3S)-[(1-{3-Methyl-(2S)-[(2-methyl-pyridine-3-carbonyl)-amino]-butyryl}-pyrrolidine-(2S)-carbonyl)-amino]-4-oxo-butyric acid], the Ki in assay [1] is < 10 nM; in assay [2], 21 to 30 nM.

For `COc1cccc(C(=O)N[C@H](C(=O)N2CCC[C@H]2C(=O)N[C@H](C=O)CC(=O)O)C(C)(C)C)c1F` [II-31, (S,S,S)-(3S)-({1-[(2S)-(2-Fluoro-3-methoxy-benzoylamino)-3,3-dimethyl-butyryl]-pyrrolidine-(2S)-carbonyl}-amino)-4-oxo-butyric acid], the Ki in assay [1] and in assay [2] was < 10 nM in each case.

Turning to `COc1cccc(C(=O)N[C@H](C(=O)N2CCC[C@H]2C(=O)N[C@H](C=O)CC(=O)O)C(C)C)c1Cl` [II-35, (S,S,S)-(3S)-({1-[(2S)-(2-chloro-3-methoxy-benzoylamino)-3-methyl-butyryl]-pyrrolidine-(2S)-carbonyl}-amino)-4-oxo-butyric acid], the inhibition constant Ki in assay [1] and in assay [2] was < 10 nM throughout.

In the case of `CC(=O)Nc1ccc(C(=O)N[C@H](C(=O)N2CCC[C@H]2C(=O)N[C@H](C=O)CC(=O)O)C2CCCCC2)c(Cl)c1` [II-50, (S,S,S)-(3S)-({1-[(2S)-(2-chloro-4-acetamido-benzoylamino)-3-cyclohexyl]-pyrrolidine-(2S)-carbonyl}-amino)-4-oxo-butyric acid], the Ki in assay [1] is < 10 nM; in assay [2], 21 to 30 nM.

Take `COc1cccc(C(=O)N[C@H](C(=O)N2C3CC[C@@H](C3)[C@H]2C(=O)N[C@H](C=O)CC(=O)O)C(C)C)c1F` (stereo in doubt) [II-61, (3S)-({2-[(2S)-(2-Fluoro-3-methoxy-benzoylamino)-3-methyl-butyryl]-2-(1S,4R)-aza-bicyclo[2.2.1]heptane-(3S)-carbonyl}-amino)-4-oxo-butyric acid]: the Ki in assay [1] and in assay [2] was < 10 nM throughout.

With `CC(C)(C)[C@H](NC(=O)c1ccc(N)c(Cl)c1)C(=O)N1[C@@H]2CC[C@@H](C2)[C@H]1C(=O)N[C@H](C=O)CC(=O)O` (stereo in doubt) [II-65, (3S)-({2-[(2S)-(4-Amino-3-chloro-benzoylamino)-3,3-dimethyl-butyryl]-2-(1S,4R)-aza-bicyclo[2.2.1]heptane-(3S)-carbonyl}-amino)-4-oxo-butyric acid], the Ki in assay [1] and in assay [2] was < 10 nM in each case.

`COCc1ccc(C(=O)N[C@H](C(=O)N2CCC[C@H]2C(=O)N[C@H](C=O)CC(=O)O)C(C)(C)C)c(Cl)c1` [II-48, (S,S,S)-(3S)-({1-[(2S)-(2-chloro-4-methoxymethyl-benzoylamino)-3,3-dimethyl-butyryl]-pyrrolidine-(2S)-carbonyl}-amino)-4-oxo-butyric acid]: the Ki in assay [1] and in assay [2] was < 10 nM each time.

As for `Cc1cccc(C)c1C(=O)N[C@H](C(=O)N1CCC[C@H]1C(=O)N[C@H](C=O)CC(=O)O)C(C)C` [II-14, (S,S,S)-(3S)-({1-[(2S)-(2,6-Methyl-benzoylamino)-3-methyl-butyryl]-pyrrolidine-(2S)-carbonyl}-amino)-4-oxo-butyric acid], the Ki was 10 to 20 nM in assay [1] and < 10 nM in assay [2].

Turning to `CC(C)(C)[C@H](NC(=O)c1ccc(O)cc1Cl)C(=O)N1CCC[C@H]1C(=O)N[C@H](C=O)CC(=O)O` [II-47, (S,S,S)-(3S)-({1-[(2S)-(2-chloro-4-hydroxy-benzoylamino)-3,3-dimethyl-butyryl]-pyrrolidine-(2S)-carbonyl}-amino)-4-oxo-butyric acid], the inhibition constant Ki in assay [1] and in assay [2] was < 10 nM throughout.

`CC(C)[C@H](NC(=O)c1c(Cl)cccc1Cl)C(=O)N1CCC[C@H]1C(=O)N[C@H](C=O)CC(=O)O` [II-13, (S,S,S)-(3S)-({1-[(2S)-(2,6-Dichloro-benzoylamino)-3-methyl-butyryl]-pyrrolidine-(2S)-carbonyl}-amino)-4-oxo-butyric acid]: the Ki in assay [1] and in assay [2] was 10 to 20 nM throughout.

For the compound `CC(=O)Nc1ccc(C(=O)N[C@H](C(=O)N2[C@@H]3CC[C@@H](C3)[C@H]2C(=O)N[C@H](C=O)CC(=O)O)C(C)(C)C)cc1Cl` (stereo in doubt) [II-62, (3S)-({2-[(2S)-(4-Acetylamino-3-chloro-benzoylamino)-3,3-dimethyl-butyryl]-2-(1S,4R)-aza-bicyclo[2.2.1]heptane-(3S)-carbonyl}-amino)-4-oxo-butyric acid], the Ki was < 10 nM in assay [1] and 10 to 20 nM in assay [2].

As to `COc1ccccc1C(=O)N[C@H](C(=O)N1CCC[C@H]1C(=O)N[C@H](C=O)CC(=O)O)C(C)C` [II-4, (S,S,S)-(3S)-({1-[(2S)-(2-methoxy-benzoylamino)-3-methyl-butyryl]-pyrrolidine-(2S)-carbonyl}-amino)-4-oxo-butyric acid], the figures for the Ki in assay [1] and in assay [2] were < 10 nM and 10 to 20 nM, respectively.

In the case of `CC(=O)Nc1ccc(C(=O)N[C@H](C(=O)N2CCC[C@H]2C(=O)N[C@H](C=O)CC(=O)O)C(C)C)c(F)c1` [II-45, (S,S,S)-(3S)-({1-[(2S)-(2-fluoro-4-acetamido-benzoylamino)-3-methyl-butyryl]-pyrrolidine-(2S)-carbonyl}-amino)-4-oxo-butyric acid], the inhibition constant (Ki) in assay [1] and in assay [2] was < 10 nM in each case.

Take `CC(=O)Nc1ccc(C(=O)N[C@H](C(=O)N2C3CC[C@@H](C3)[C@H]2C(=O)N[C@H](C=O)CC(=O)O)C(C)(C)C)c(Cl)c1` (stereo in doubt) [II-57, (3S)-({2-[(2S)-(4-Acetylamino-2-chloro-benzoylamino)-3,3-dimethyl-butyryl]-2-(1S,4R)-aza-bicyclo[2.2.1]heptane-(3S)-carbonyl}-amino)-4-oxo-butyric acid]: the Ki in assay [1] and in assay [2] was < 10 nM each time.

As to `CC(C)[C@H](NC(=O)c1ccccc1Cl)C(=O)N1CCC[C@H]1C(=O)N[C@H](C=O)CC(=O)O` [II-2, (S,S,S)-(3S)-({1-[(2S)-(2-Chloro-benzoylamino)-3-methyl-butyryl]-pyrrolidine-(2S)-carbonyl}-amino)-4-oxo-butyric acid], the Ki in assay [1] and in assay [2] was < 10 nM in each case.
